Reference: PMC8972088 (Bioorganic & medicinal chemistry, 2021)

Tests used:
GSK-3β [1] = target: T1, GSK-3β (Homo sapiens, UniProt P49841); experiment: PhosphoSens real-time kinase assay, wild type GSK-3β; type: biochemical; conditions: for increase in potency with preincubation: 3-hour preincubation vs no preincubation
GSK-3β [2] = target: T1, GSK-3β; experiment: GSK-3β kinase assay in presence of reducing agents; conditions: inhibitor 10 μM; for effect of reducing agents on potency: 2 mM DTT, GSH or TCEP, 84 min
GSK-3β C199A mutant = GSK-3β C199A mutant (Homo sapiens, UniProt P49841, C199A); experiment: PhosphoSens kinase assay, GSK-3β C199A mutant; type: biochemical; conditions: C199A vs wild type GSK-3β
Sequence of GSK-3β C199A mutant (P49841 whole entry C199A): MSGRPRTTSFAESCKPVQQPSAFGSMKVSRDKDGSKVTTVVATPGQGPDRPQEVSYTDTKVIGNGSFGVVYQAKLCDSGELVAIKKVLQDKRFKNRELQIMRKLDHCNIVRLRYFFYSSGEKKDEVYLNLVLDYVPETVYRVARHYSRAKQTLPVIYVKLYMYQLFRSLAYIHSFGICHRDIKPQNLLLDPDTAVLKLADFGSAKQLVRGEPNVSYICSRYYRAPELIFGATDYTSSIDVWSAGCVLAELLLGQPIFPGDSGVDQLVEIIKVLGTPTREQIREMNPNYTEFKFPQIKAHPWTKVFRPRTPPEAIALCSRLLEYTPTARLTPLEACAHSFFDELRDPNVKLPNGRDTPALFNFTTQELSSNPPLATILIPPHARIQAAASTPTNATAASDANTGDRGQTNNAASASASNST

MAPKAPK5 (PRAK) = target: T2, MAPKAPK5 (PRAK) (Homo sapiens, UniProt Q8IW41); experiment: Kinase panel screen, Z'-LYTE; type: biochemical; conditions: read-out: Inhibition MAPKAPK5 (PRAK), 2 μM COB-187, ATP Km, ±SD n=2
T2 sequence (Q8IW41 1-473): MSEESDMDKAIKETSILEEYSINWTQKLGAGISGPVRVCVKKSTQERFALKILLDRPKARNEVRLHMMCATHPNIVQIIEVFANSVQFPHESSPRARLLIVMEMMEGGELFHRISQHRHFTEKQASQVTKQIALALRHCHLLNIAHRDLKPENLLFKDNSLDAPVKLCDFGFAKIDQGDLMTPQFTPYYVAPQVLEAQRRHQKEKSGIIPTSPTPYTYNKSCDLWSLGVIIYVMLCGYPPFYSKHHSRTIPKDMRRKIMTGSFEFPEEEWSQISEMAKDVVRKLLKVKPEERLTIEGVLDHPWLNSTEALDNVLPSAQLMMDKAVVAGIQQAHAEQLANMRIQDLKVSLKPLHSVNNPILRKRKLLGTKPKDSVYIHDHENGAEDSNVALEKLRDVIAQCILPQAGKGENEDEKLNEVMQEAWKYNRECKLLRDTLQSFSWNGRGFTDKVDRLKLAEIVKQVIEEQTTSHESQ

[3] = Reaction of COB-187 with ethanethiol and tributylphosphine in THF; type: physicochemical; conditions: room temperature to reflux, HPLC and 1H-NMR
KDR (VEGFR2) = KDR (VEGFR2) (Homo sapiens, UniProt P35968); experiment: Kinase panel screen, Z'-LYTE; type: biochemical; conditions: read-out: Inhibition KDR (VEGFR2)
Sequence of KDR (VEGFR2) (P35968 20-1356): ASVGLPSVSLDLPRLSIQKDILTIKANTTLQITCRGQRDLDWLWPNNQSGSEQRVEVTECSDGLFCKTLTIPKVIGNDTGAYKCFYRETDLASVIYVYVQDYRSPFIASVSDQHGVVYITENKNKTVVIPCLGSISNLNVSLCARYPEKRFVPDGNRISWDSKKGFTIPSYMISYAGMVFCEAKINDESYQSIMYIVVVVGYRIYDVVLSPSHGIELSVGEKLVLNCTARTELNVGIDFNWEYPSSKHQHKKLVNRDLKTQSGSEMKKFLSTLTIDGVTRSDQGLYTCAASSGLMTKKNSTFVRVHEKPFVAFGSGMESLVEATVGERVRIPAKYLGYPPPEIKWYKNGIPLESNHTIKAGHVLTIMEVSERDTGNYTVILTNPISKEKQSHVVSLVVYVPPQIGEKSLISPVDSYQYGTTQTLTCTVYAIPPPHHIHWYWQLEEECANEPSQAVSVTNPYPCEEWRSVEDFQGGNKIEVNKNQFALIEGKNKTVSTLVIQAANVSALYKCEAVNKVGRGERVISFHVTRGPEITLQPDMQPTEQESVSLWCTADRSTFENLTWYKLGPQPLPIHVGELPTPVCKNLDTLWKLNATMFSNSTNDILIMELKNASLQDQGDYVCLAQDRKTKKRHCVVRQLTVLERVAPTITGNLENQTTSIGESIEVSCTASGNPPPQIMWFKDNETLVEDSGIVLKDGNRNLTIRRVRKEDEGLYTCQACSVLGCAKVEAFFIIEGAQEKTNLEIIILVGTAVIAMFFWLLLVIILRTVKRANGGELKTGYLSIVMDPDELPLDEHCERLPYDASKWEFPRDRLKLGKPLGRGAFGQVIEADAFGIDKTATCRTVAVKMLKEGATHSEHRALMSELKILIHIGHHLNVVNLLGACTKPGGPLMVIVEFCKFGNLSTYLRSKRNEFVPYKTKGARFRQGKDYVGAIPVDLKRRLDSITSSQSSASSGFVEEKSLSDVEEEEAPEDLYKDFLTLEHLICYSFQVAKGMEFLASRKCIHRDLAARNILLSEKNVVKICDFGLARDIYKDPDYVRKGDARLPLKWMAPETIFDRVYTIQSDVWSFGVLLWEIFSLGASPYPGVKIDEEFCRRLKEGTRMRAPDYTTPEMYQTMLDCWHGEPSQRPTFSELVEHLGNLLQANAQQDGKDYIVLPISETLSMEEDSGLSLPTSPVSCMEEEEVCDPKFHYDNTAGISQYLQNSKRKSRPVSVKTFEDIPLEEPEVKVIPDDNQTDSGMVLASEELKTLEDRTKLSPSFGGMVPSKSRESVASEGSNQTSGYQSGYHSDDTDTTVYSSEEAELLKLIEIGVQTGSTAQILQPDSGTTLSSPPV

GSK-3β [4] = target: T1, GSK-3β; experiment: Jump dilution assay; type: biochemical; conditions: 3-hour pre-incubation with 50 nM GSK-3β, 100-fold dilution; 2 mM ATP

T1 sequence (P49841 whole entry): as the sequence (P49841 whole entry C199A) above, with A199C counted along it

SMILES | increase in potency with preincubation (GSK-3β [1]) | average k4 from fit of kobs vs concentration to Eq. 8 (induced-fit) (GSK-3β [1]; average of five replicates, ± SD) | effect of reducing agents on potency (GSK-3β [2]) | decrease in potency for the mutant versus wild type (GSK-3β C199A mutant) [fold] | inhibition at 2 µM (MAPKAPK5 (PRAK)) [%] | reaction with ethanethiol and tributylphosphine [3] | inhibition at 2 µM (KDR (VEGFR2)) [%] | recovery of GSK-3β activity upon jump dilution (GSK-3β [4]) | effect of DTT or GSH on potency (GSK-3β [2]; 2 mM DTT or GSH) | effect of TCEP on potency (GSK-3β [2]; 2 mM TCEP)
OC1(c2ccccc2)CSC(=S)N1Cc1ccncc1 (centres unmarked) [COB-187, 4-hydroxy-4-phenyl-3-(pyridin-4-ylmethyl)thiazolidine-2-thione] | < 4 fold | 2.9 × 10^−4 (±4.8 × 10^−4 SD) 1/min | significantly diminished | > 300 | ~64 | no evidence of any reaction | 8 ± 8.2 |  |  | 
O=C1Cc2c([nH]c3ccc([N+](=O)[O-])cc23)-c2ccccc2N1 [Alsterpaullone] | no significant increase |  |  |  |  |  |  | recovered most of its activity upon dilution |  | 
COc1ccc(CNC(=O)Nc2ncc([N+](=O)[O-])s2)cc1 [AR-A014418] |  |  |  |  |  |  |  |  | not significantly altered | significant but modest reduction
COc1cc(O)c2c(c1)[C@H]1O[C@@H]1C[C@H](O)[C@H](O)C(=O)/C=C\C[C@H](C)OC2=O [Hypothemycin] | ~ 17 fold |  | significantly diminished |  |  |  |  | did not recover activity upon jump dilution |  | 
